The source of these data is PMC7056318, “An algal enzyme required for biosynthesis of the most abundant marine carotenoids” (Science Advances, 2020).

Format in all cases: biochemical
One assay addresses T1, VDL1 from T. pseudonana (Thalassiosira pseudonana, UniProt B8C0W7).
T1 construct: gene THAPSDRAFT_22076
T1 sequence (B8C0W7 103-423): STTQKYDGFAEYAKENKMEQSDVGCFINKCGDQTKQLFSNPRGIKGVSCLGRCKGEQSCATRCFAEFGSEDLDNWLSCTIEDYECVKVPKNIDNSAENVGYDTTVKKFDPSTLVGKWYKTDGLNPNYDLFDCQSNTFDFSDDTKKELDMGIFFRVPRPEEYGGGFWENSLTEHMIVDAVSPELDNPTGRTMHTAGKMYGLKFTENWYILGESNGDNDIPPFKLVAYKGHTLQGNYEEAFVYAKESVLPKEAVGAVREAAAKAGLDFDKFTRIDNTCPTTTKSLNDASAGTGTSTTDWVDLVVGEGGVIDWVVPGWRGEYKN
Briefly: HPLC, conversion of violaxanthin to neoxanthin. Particulars: pH 5.2, 20 °C, MGDG, 3 h.

A further assay addresses T2, PtVDE (Phaeodactylum tricornutum, UniProt B7FUR6).
T2 construct: gene VDE
T2 sequence (B7FUR6 105-437): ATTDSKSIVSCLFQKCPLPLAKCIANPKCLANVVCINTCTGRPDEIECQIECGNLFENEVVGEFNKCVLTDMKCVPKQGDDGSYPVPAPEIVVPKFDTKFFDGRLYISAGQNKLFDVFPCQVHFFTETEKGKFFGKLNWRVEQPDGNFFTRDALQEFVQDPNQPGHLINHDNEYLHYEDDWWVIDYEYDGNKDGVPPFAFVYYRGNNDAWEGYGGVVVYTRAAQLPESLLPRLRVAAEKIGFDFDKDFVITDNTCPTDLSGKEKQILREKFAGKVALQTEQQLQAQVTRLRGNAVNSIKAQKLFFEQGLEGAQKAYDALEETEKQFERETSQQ
Briefly: HPLC de-epoxidase assay, dose-response.

The next assay concerns the target T3, PtVDL1 (Phaeodactylum tricornutum, UniProt B7G087).
T3 construct: gene VDL1
T3 sequence (B7G087 112-453): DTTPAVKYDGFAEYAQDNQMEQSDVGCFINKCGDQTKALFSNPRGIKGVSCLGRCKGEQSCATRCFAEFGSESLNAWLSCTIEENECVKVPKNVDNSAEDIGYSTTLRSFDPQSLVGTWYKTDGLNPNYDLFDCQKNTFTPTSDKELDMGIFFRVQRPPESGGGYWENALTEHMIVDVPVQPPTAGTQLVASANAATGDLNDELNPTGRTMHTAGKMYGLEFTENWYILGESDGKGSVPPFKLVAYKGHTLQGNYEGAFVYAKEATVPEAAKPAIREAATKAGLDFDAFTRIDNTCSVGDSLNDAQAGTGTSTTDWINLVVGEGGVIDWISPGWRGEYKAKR
Nature of the assay: HPLC tautomerase assay, dose-response.

With `CC(/C=C/C=C(C)/C=C/[C@@]12O[C@]1(C)C[C@@H](O)CC2(C)C)=C\C=C\C=C(C)\C=C\C=C(C)\C=C\[C@@]12O[C@]1(C)C[C@@H](O)CC2(C)C` [violaxanthin], the “HPLC, conversion of violaxanthin to neoxanthin” value on VDL1 from T. pseudonana was “also showed violaxanthin-neoxanthin tautomerase activity in vitro”.

In the case of `OC(CS)C(O)CS` (stereo not drawn) [DTT], the IC50 is 0.68 mM on PtVDE and 73 mM on PtVDL1.

Usually IC50 stands for the point on the concentration scale where inhibition reaches its midpoint. High values mean a need for much substance, low ones inhibition by little substance.
